Test results published in the supplement of paper PMC11061612.

Experiments:
Test in all cases: combination Emax (second highest fraction inhibited in the dose matrix, 72 h); higher = more inhibition; extreme values may be limits of the assay
[1] = tested on: ONS-76 (Other Solid Carcinomas)
Procedure, shortened: (§1)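 Cell lines grown in DMEM/F12 or RPMI with 10% FBS were plated in 1536-well plates and held 24 hours at 37°C, 5% CO2 before 72 hours of exposure to two-drug dose matrices, with DMSO typically at 0.2%. CellTiter-Glo 2.0 luminescence gave viability, which was converted to inhibition. Vehicle wells were set to 0 and blank wells to 1. Combination Emax is the second-highest inhibition in the matrix, and Bliss excess is the observed combination effect minus the expected EA + EB − EA·EB, where EA and EB are the single-agent effects.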

[2] = tested on: CAPAN-2 (Pancreatic Carcinoma)
Procedure, shortened: as §1

LN-405 (Glioblastoma) = tested on: LN-405 (Glioblastoma)
Procedure, shortened: as §1

[3] = tested on: CAL-29 (Bladder Carcinoma)
Procedure, shortened: as §1

[4] = tested on: OS-RC-2 (Kidney Carcinoma)
Procedure, shortened: as §1

U-2-OS (Osteosarcoma) = tested on: U-2-OS (Osteosarcoma)
Procedure, shortened: as §1

NY (Osteosarcoma) = tested on: NY (Osteosarcoma)
Procedure, shortened: as §1

[5] = tested on: COLO-824 (Breast Carcinoma)
Procedure, shortened: as §1

[6] = tested on: SISO (Cervical Carcinoma)
Procedure, shortened: as §1

[7] = tested on: A549 (Lung Adenocarcinoma)
Procedure, shortened: as §1

[8] = tested on: TT (Thyroid Gland Carcinoma)
Procedure, shortened: as §1

CAS-1 (Glioblastoma) = tested on: CAS-1 (Glioblastoma)
Procedure, shortened: as §1

[9] = tested on: NCI-H1650 (Lung Adenocarcinoma)
Procedure, shortened: as §1

[10] = tested on: CCK-81 (Colorectal Carcinoma)
Procedure, shortened: as §1

[11] = tested on: VCaP (Prostate Carcinoma)
Procedure, shortened: as §1

[12] = tested on: SK-MG-1 (Low Grade Glioma)
Procedure, shortened: as §1

[13] = tested on: NCI-H1581 (Non-Small Cell Lung Carcinoma)
Procedure, shortened: as §1

PA-1 (Ovarian Carcinoma) = tested on: PA-1 (Ovarian Carcinoma)
Procedure, shortened: as §1

GI-ME-N (Neuroblastoma) = tested on: GI-ME-N (Neuroblastoma)
Procedure, shortened: as §1

[14] = tested on: JSC-1 (B-Cell Non-Hodgkin's Lymphoma)
Procedure, shortened: as §1

Row | Structure (SMILES) | combination Emax [1] | combination Emax [2] | combination Emax (LN-405 (Glioblastoma)) | combination Emax [3] | combination Emax [4] | combination Emax (U-2-OS (Osteosarcoma)) | combination Emax (NY (Osteosarcoma)) | combination Emax [5] | combination Emax [6] | combination Emax [7] | combination Emax [8] | combination Emax (CAS-1 (Glioblastoma)) | combination Emax [9] | combination Emax [10] | combination Emax [11] | combination Emax [12] | combination Emax [13] | combination Emax (PA-1 (Ovarian Carcinoma)) | combination Emax (GI-ME-N (Neuroblastoma)) | combination Emax [14]
1 | COc1nnc2ccc(N3CCC(c4ccc(OCCN5CCN(C)C(=O)[C@H]5C)cc4)CC3)nn12 [AZD5153] + CCN(CCO)CCCOc1ccc2c(Nc3cc(CC(=O)Nc4cccc(F)c4)[nH]n3)ncnc2c1 [AZD2811] (first compound max 1 µM, 7x7, partner max 1 µM) | 0.56 | 0.296 | 0.515 | 0.372 | 0.304 | 0.405 | 0.517 | 0.845 | 0.486 | 0.834 | 0.692 | 0.646 | 0.415 | 0.858 | 0.789 | 0.566 | 0.437 | 0.904 | 0.341 | 0.775
2 | Cc1c2c(nn1C)CSCc1cc(n(C)n1)CSc1cc(c3ccccc3c1)OCCCc1c(C(=O)O)n(C)c3c-2c(Cl)ccc13 [AZD5991] + C[C@@H](Nc1cc(F)cc(F)c1)c1cc(C(=O)N(C)C)cc2c(=O)cc(N3CCOCC3)oc12 [AZD8186] (first compound max 1 µM, 7x7, partner max 3 µM) | 0.244 | 0.252 | 0.572 | 0.421 | 0.471 | 0.238 | 0.631 | 0.441 | 0.123 | 0.476 | 0.394 | 0.467 | 0.297 | 0.899 | 0.935 | 0.648 | 0.991 | 0.964 | 0.301 | 1
3 | NC1(C(=O)N[C@@H](CCO)c2ccc(Cl)cc2)CCN(c2ncnc3[nH]ccc23)CC1 [Capivasertib] + CC(C)n1c(=O)n(C)c2cnc3cc(F)c(-c4ccc(OCCCN5CCCCC5)nc4)cc3c21 [AZD1390] (first compound max 10 µM, 7x7, partner max 0.3 µM) | 0.386 | 0.222 | 0.489 | 0.337 | 0.401 | 0.288 | 0.309 | 0.464 | 0.269 | 0.59 | 0.425 | 0.543 | 0.317 | 0.327 | 0.458 | 0.519 | 0.129 | 0.753 | 0.335 | 0.364
4 | CC1(C)CCC(CN2CCN(c3ccc(C(=O)NS(=O)(=O)c4ccc(NCC5CCOCC5)c([N+](=O)[O-])c4)c(Oc4cnc5[nH]ccc5c4)c3)CC2)=C(c2ccc(Cl)cc2)C1 [Venetoclax] + Cc1cc2ncnn2cc1Nc1ncc2c(n1)n(C1CCOCC1)c(=O)n2C [AZD7648] (first compound max 1 µM, 7x7, partner max 10 µM) | 0.764 | 0.219 | 0.373 | 0.209 | 0.274 | 0.206 | 0.578 | 0.766 | 0.164 | 0.436 | 0.601 | 0.279 | 0.108 | 0.173 | 0.293 | 0.28 | 0.222 | 0.473 | 0.186 | 0.205
5 | Cc1c2c(nn1C)CSCc1cc(n(C)n1)CSc1cc(c3ccccc3c1)OCCCc1c(C(=O)O)n(C)c3c-2c(Cl)ccc13 [AZD5991] + CC1(C)CCC(CN2CCN(c3ccc(C(=O)NS(=O)(=O)c4ccc(NCC5CCOCC5)c([N+](=O)[O-])c4)c(Oc4cnc5[nH]ccc5c4)c3)CC2)=C(c2ccc(Cl)cc2)C1 [Venetoclax] (first compound max 1 µM, 7x7, partner max 1 µM) | 0.211 | 0.153 | 0.425 | 0.391 | 0.133 | 0.271 | 0.729 | 0.997 | 0.151 | 0.216 | 0.83 | 0.286 | 0.184 | 0.871 | 0.913 | 0.178 | 0.968 | 0.964 | 0.354 | 1
6 | CN(CCO)CC[C@H](CSc1ccccc1)Nc1ccc(S(=O)(=O)NC(=O)c2ccc(N3CCC([C@@H](O)c4ccccc4-c4ccc(Cl)cc4)CC3)cc2)cc1S(=O)(=O)C(F)(F)F [AZD4320] + C[C@@H]1COCCN1C2=NC(=NC(=C2)C3(CC3)[S@](=N)(=O)C)C4=C5C=CNC5=NC=C4 [AZD6738] (first compound max 1 µM, 7x7, partner max 10 µM) | 0.877 | 0.791 | 0.63 | 0.928 | 0.517 | 0.724 | 0.903 | 1 | 0.681 | 0.777 | 0.726 | 0.787 | 0.532 | 0.828 | 0.577 | 0.644 | 0.364 | 0.886 | 0.499 | 0.888
7 | CC1(C)CCC(CN2CCN(c3ccc(C(=O)NS(=O)(=O)c4ccc(NCC5CCOCC5)c([N+](=O)[O-])c4)c(Oc4cnc5[nH]ccc5c4)c3)CC2)=C(c2ccc(Cl)cc2)C1 [Venetoclax] + C[C@@H](Nc1cc(F)cc(F)c1)c1cc(C(=O)N(C)C)cc2c(=O)cc(N3CCOCC3)oc12 [AZD8186] (first compound max 1 µM, 7x7, partner max 3 µM) | 0.746 | 0.194 | 0.335 | 0.113 | 0.375 | 0.139 | 0.616 | 0.921 | 0.11 | 0.471 | 0.531 | 0.399 | 0.255 | 0.0792 | 0.188 | 0.387 | 0.182 | 0.682 | 0.165 | 0.0196
8 | CN(C)CCCOc1ccc(-c2ccc3ncc4c(c3c2)n(C2CCOCC2)c(=O)n4C)cn1 [AZD0156] + CCN(CCO)CCCOc1ccc2c(Nc3cc(CC(=O)Nc4cccc(F)c4)[nH]n3)ncnc2c1 [AZD2811] (first compound max 1 µM, 7x7, partner max 1 µM) | 0.293 | 0.122 | 0.0969 | 0.284 | 0.11 | 0.152 | 0.0423 | 0.818 | 0.172 | 0.595 | 0.359 | 0.263 | 0.101 | 0.159 | 0.118 | 0.388 | 0.271 | 0.407 | 0.0704 | 0.19
9 | CN(CCO)CC[C@H](CSc1ccccc1)Nc1ccc(S(=O)(=O)NC(=O)c2ccc(N3CCC([C@@H](O)c4ccccc4-c4ccc(Cl)cc4)CC3)cc2)cc1S(=O)(=O)C(F)(F)F [AZD4320] + C[C@@H](Nc1cc(F)cc(F)c1)c1cc(C(=O)N(C)C)cc2c(=O)cc(N3CCOCC3)oc12 [AZD8186] (first compound max 1 µM, 7x7, partner max 3 µM) | 0.338 | 0.678 | 0.615 | 0.515 | 0.581 | 0.382 | 0.589 | 1 | 0.315 | 0.401 | 0.803 | 0.623 | 0.402 | 0.338 | 0.37 | 0.652 | 0.287 | 0.927 | 0.469 | 0.546
10 | Cc1cc2ncnn2cc1Nc1ncc2c(n1)n(C1CCOCC1)c(=O)n2C [AZD7648] + C[C@@H]1COCCN1C2=NC(=NC(=C2)C3(CC3)[S@](=N)(=O)C)C4=C5C=CNC5=NC=C4 [AZD6738] (first compound max 10 µM, 7x7, partner max 10 µM) | 0.825 | 0.346 | 0.43 | 0.598 | 0.419 | 0.675 | 0.527 | 0.738 | 0.505 | 0.786 | 0.604 | 0.609 | 0.324 | 0.9 | 0.452 | 0.584 | 0.471 | 0.75 | 0.59 | 0.896
11 | NC1(C(=O)N[C@@H](CCO)c2ccc(Cl)cc2)CCN(c2ncnc3[nH]ccc23)CC1 [Capivasertib] + COc1nnc2ccc(N3CCC(c4ccc(OCCN5CCN(C)C(=O)[C@H]5C)cc4)CC3)nn12 [AZD5153] (first compound max 10 µM, 7x7, partner max 1 µM) | 0.627 | 0.33 | 0.623 | 0.723 | 0.433 | 0.354 | 0.346 | 0.776 | 0.421 | 0.823 | 0.695 | 0.735 | 0.442 | 0.695 | 0.96 | 0.721 | 0.462 | 0.998 | 0.343 | 0.793
12 | NC1(C(=O)N[C@@H](CCO)c2ccc(Cl)cc2)CCN(c2ncnc3[nH]ccc23)CC1 [Capivasertib] + C[C@@H]1COCCN1C2=NC(=NC(=C2)C3(CC3)[S@](=N)(=O)C)C4=C5C=CNC5=NC=C4 [AZD6738] (first compound max 10 µM, 7x7, partner max 10 µM) | 0.852 | 0.219 | 0.615 | 0.716 | 0.481 | 0.535 | 0.645 | 0.68 | 0.586 | 0.848 | 0.484 | 0.735 | 0.541 | 0.857 | 0.567 | 0.668 | 0.235 | 0.964 | 0.411 | 0.95
